Data as given in patent publication US20070128217A1 (priority 2003, published 2007).

What was measured:
[1] = system: antibodies in sera from SARS patients (sera 1a, 1b, 2, 6, 37, 62, London, SARS-yellow, SARS-green); type: binding, human
[2] = system: control sera (pooled serum of ten healthy LUMC hospital workers; commercial negative donor pooled serum from the Dutch bloodbank); type: binding, human
[3] = system: rabbit serum obtained by immunizing a rabbit with the SARS-CoV strain Frankfurt 1; type: binding; set-up: Binding of a rabbit serum to linear peptides / Binding of a rabbit serum to looped peptides / Rabbit serum linear peptides / Rabbit serum looped peptides / Binding of a rabbit serum to linear peptides of protein N of SARS-CoV Urbani (Rabbit serum linear peptides) / Binding of a rabbit serum to looped/cyclic peptides of protein N of SARS-CoV Urbani (Rabbit serum looped peptides): unit not given here

Sequence | Binding of serum 1a to linear peptides of protein E of SARS-CoV Urbani [1] | Binding of serum 1a to looped/cyclic peptides of protein E of SARS-CoV Urbani [1] | Binding of serum 1b to linear peptides of protein E of SARS-CoV Urbani [1] | Binding of serum 1b to looped/cyclic peptides of protein E of SARS-CoV Urbani [1] | Binding of serum 2 to linear peptides of protein E of SARS-CoV Urbani [1] | Binding of serum 2 to looped/cyclic peptides of protein E of SARS-CoV Urbani [1] | Binding of serum 6 to linear peptides of protein E of SARS-CoV Urbani [1] | Binding of serum 6 to looped/cyclic peptides of protein E of SARS-CoV Urbani [1] | Binding of serum 37 to linear peptides of protein E of SARS-CoV Urbani [1] | Binding of serum 37 to looped/cyclic peptides of protein E of SARS-CoV Urbani [1] | Binding of serum 62 to linear peptides of protein E of SARS-CoV Urbani [1] | Binding of serum 62 to looped/cyclic peptides of protein E of SARS-CoV Urbani [1] | Binding of serum London to linear peptides of protein E of SARS-CoV Urbani [1] | Binding of serum London to looped/cyclic peptides of protein E of SARS-CoV Urbani [1] | Binding of serum SARS-green to linear peptides of protein E of SARS-CoV Urbani [1] | Binding of serum SARS-green to looped/cyclic peptides of protein E of SARS-CoV Urbani [1] | Binding of serum SARS-yellow to linear peptides of protein E of SARS-CoV Urbani [1] | Binding of serum SARS-yellow to looped/cyclic peptides of protein E of SARS-CoV Urbani [1] | Binding of Control Serum Blood-Bank to Looped peptides [2] | Binding of Control serum Blood-bank to linear peptides [2] | further results
AILTALRLCAYCCNI | 0.6 | 0.8 | 0.4 | 0.6 | 0.5 | 0.7 | 0.3 | 0.5 | 0.4 | 0.7 | 0.4 | 0.8 | 0.5 | 0.4 | 0.5 | 0.5 | 0.1 | 0.9 | 0.6 | 0.6 | Binding of Control serum LUMC to linear peptides [2]: 0.6; Binding of Control serum LUMC to looped peptides [2]: 0.8; Binding of a rabbit serum to linear peptides [3]: 0.2; Binding of a rabbit serum to looped peptides [3]: 0.6
ETGTLIVNSVLLFLA | 0.8 | 0.5 | 0.7 | 0.4 | 0.8 | 0.5 | 0.5 | 0.4 | 0.4 | 0.5 | 0.4 | 0.7 | 0.8 | 0.4 | 0.6 | 0.3 | 0.4 | 0.5 | 0.5 | 0.5 | Binding of Control serum LUMC to linear peptides [2]: 0.8; Binding of Control serum LUMC to looped peptides [2]: 0.5; Binding of a rabbit serum to linear peptides [3]: 0.3; Binding of a rabbit serum to looped peptides [3]: 0.0
